# Tested on: KB
# Assay: Cytotoxicity against human KB cells
# Type: functional, cell-based
row,SMILES,IC50 [nM]
1,CCCCCCCCCCCC[C@@H](O)[C@H]1CC[C@@H]([C@@H](O)CCCC(O)CCCCCC(O)C(O)CC2=C[C@H](C)OC2=O)O1 (some centres undefined) [PLAGIONICIN C],6
2,CCCCCCCCCCCC[C@@H](O)[C@H]1CC[C@H]([C@H](O)CC(CCCCC(O)CCCCCCCC2=C[C@H](C)OC2=O)OC(C)=O)O1 (some centres undefined) [PLAGIONEURIN A],2.4
3,CCCCCCCCCCCC[C@@H](O)[C@H]1CC[C@H]([C@H](O)CC(CCCCC(=O)CCCCC(O)CCC2=C[C@H](C)OC2=O)OC(C)=O)O1 (some centres undefined) [PLAGIONEURIN E],2.6
4,CCCCCCCCCCCC[C@@H](O)[C@H]1CC[C@@H]([C@@H](O)CCCCC(=O)CCCCC(O)CCC2=C[C@H](C)OC2=O)O1 (some centres undefined) [PLAGIONICIN B],1400
5,CCCCCCCCCCCC[C@@H](O)[C@H]1CC[C@H]([C@H](O)CCCC(O)C(O)CCCCC(=O)CCC2=C[C@H](C)OC2=O)O1 (some centres undefined) [PLAGIONICIN D],26
6,CCCCCCCCCCCC[C@@H](O)[C@H]1CC[C@H]([C@H](O)CCCCC(O)CCCC[C@@H](O)CCC2=C[C@H](C)OC2=O)O1 (some centres undefined) [PLAGIONICIN A],2
7,CCCCCCCCCCCC[C@@H](O)[C@H]1CC[C@H]([C@H](O)CC(CCCCC(=O)CCCCCCCC2=C[C@H](C)OC2=O)OC(C)=O)O1 (some centres undefined) [PLAGIONEURIN C],26
8,CCCCCCCCCCCC[C@H](O)[C@H]1CC[C@H]([C@@H](O)CC(CCCCC(O)CCCCCCCC2=C[C@H](C)OC2=O)OC(C)=O)O1 (some centres undefined) [PLAGIONEURIN B],6.5
9,CCCCCCCCCCCC[C@@H](O)[C@H]1CC[C@H]([C@H](O)CC(CCCCC(=O)CCCC[C@@H](O)CCC2=C[C@H](C)OC2=O)OC(C)=O)O1 (some centres undefined) [PLAGIONEURIN D],2.8

# — ChEMBL document CHEMBL1158054, “Cytotoxic monotetrahydrofuran acetogenins from Disepalum plagioneurum” (J Nat Prod, 2006)
